Reference: ChEMBL document CHEMBL3352660, “Design, synthesis and pharmacological evaluation of novel polycyclic heteroarene ethers as PDE10A inhibitors: part II” (Bioorg Med Chem Lett, 2014)
Active and inactive are the calls of the source. No cut-off for these calls is given here.

How the values were obtained:
[1] = target: cGMP-specific 3',5'-cyclic phosphodiesterase (Homo sapiens) (UniProt O76074); assay: Inhibition of human recombinant PDE5A using […] as substrate at 10 uM after 30 mins by scintillation proximity assay
Rattus norvegicus [2] = assay: Antipsychotic activity in Sprague-Dawley rat prepulse inhibition deficit model assessed as reversal of MK-801-induced effect at 3 mg/kg, po administered 110 mins prior to MK-801 challenge relative to vehicle-treated control; format: functional; parameters: scale not given: the % may be the effect or the level left
[3] = target: Dual 3',5'-cyclic-AMP and -GMP phosphodiesterase 11A (Homo sapiens) (UniProt Q9HCR9); assay: Inhibition of human recombinant PDE11A using [3H]-cAMP as substrate at 10 uM after 30 mins by two-step radiometric assay
Dual 3',5'-cyclic-AMP and -GMP phosphodiesterase 11A (Homo sapiens), sequence (Q9HCR9 whole entry, looked up): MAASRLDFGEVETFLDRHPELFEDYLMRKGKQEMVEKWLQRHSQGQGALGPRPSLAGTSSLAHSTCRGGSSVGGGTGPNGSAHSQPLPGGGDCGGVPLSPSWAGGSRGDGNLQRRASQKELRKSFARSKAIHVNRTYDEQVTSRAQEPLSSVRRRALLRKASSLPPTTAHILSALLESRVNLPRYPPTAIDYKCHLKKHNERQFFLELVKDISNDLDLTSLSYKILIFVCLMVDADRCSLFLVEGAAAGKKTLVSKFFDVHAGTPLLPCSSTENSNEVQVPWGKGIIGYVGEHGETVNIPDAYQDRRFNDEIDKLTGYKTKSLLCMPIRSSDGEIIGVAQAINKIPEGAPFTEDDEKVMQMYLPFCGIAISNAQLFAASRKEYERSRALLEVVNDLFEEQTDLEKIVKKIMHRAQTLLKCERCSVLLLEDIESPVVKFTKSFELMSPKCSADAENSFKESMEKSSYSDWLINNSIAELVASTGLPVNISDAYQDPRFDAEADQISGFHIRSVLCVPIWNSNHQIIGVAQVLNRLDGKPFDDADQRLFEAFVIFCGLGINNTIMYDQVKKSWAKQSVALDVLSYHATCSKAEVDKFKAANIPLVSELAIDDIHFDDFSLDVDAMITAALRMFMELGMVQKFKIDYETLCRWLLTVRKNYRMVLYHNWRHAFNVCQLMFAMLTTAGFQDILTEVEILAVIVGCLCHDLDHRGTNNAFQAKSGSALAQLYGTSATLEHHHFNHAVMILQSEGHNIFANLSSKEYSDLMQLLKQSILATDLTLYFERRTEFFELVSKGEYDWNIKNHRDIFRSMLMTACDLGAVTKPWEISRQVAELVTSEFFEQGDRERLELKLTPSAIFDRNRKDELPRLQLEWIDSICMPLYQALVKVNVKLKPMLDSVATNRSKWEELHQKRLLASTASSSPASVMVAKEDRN

Rattus norvegicus [4] = assay: Antipsychotic activity in Sprague-Dawley rat conditioned avoidance response model assessed as avoidance of shock at 10 mg/kg, po measured after 2 hrs relative to vehicle-treated control; format: functional
[5] = Tmax in Sprague-Dawley rat at 10 mg/kg, po; format: ADME, organism-based; parameters: dose 10 mg/kg, route oral; settings: in vivo
[6] = AUC (0 to t) in Swiss albino mouse at 10 mg/kg, po; format: ADME, organism-based; parameters: dose 10 mg/kg, route oral; settings: plasma
Rattus norvegicus [7] = assay: Antipsychotic activity in Sprague-Dawley rat prepulse inhibition deficit model assessed as reversal of MK-801-induced effect at 10 mg/kg, po administered 110 mins prior to MK-801 challenge relative to vehicle-treated control; format: functional; parameters: scale not given: the % may be the effect or the level left
[8] = Tmax in Swiss albino mouse at 10 mg/kg, po; format: ADME, organism-based; parameters: dose 10 mg/kg, route oral; settings: in vivo
Rattus norvegicus [9] = assay: Antipsychotic activity in po dosed Sprague-Dawley rat conditioned avoidance response model assessed as avoidance of shock measured after 2 hrs relative to vehicle-treated control; format: functional
Rattus norvegicus [10] = assay: Antipsychotic activity in Sprague-Dawley rat psychosis model assessed as reversal of MK-801-induced stereotypy at 1 mg/kg, po administered 2 hrs prior to MK-801 challenge measured every 5 mins for 1 hr starting 15 mins post MK-801 injection relative to vehicle-treated control; format: functional
[11] = target: cGMP-dependent 3',5'-cyclic phosphodiesterase (Homo sapiens) (UniProt O00408); assay: Inhibition of human recombinant PDE2A using cAMP as substrate at 1 uM after 30 mins by HTRF method
cGMP-dependent 3',5'-cyclic phosphodiesterase (Homo sapiens), sequence (O00408 whole entry): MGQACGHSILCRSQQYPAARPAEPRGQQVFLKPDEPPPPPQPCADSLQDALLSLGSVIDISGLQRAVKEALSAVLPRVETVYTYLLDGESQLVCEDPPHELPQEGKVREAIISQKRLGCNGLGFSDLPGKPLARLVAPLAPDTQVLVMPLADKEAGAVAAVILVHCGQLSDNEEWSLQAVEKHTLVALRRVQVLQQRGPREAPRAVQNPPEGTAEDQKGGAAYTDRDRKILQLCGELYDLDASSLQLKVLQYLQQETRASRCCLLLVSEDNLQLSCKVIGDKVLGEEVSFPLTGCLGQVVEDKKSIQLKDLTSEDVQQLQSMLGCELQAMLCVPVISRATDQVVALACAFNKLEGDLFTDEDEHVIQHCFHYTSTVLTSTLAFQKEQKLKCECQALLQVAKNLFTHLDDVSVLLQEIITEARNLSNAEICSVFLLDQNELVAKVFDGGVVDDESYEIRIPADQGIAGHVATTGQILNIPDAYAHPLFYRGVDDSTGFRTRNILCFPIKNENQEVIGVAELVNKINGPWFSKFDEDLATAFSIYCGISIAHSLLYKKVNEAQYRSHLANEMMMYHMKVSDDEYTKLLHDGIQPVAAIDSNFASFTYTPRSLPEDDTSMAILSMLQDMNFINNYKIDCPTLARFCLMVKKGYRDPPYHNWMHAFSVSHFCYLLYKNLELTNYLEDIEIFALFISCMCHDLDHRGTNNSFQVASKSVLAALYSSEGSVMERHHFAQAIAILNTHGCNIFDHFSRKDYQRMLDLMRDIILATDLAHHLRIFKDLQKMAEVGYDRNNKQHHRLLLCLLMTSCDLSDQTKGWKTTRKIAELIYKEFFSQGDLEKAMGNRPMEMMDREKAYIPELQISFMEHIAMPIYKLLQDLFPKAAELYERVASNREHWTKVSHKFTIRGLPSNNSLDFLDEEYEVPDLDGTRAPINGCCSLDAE

Rattus norvegicus [12] = assay: Antipsychotic activity in po dosed Sprague-Dawley rat prepulse inhibition deficit model assessed as reversal of MK-801-induced effect administered 110 mins prior to MK-801 challenge relative to vehicle-treated control; format: functional
[13] = target: High affinity 3',5'-cyclic-AMP phosphodiesterase 7A (Homo sapiens) (UniProt Q13946); assay: Inhibition of human recombinant PDE7A using [3H]-cAMP as substrate at 10 uM after 30 mins by two-step radiometric assay
High affinity 3',5'-cyclic-AMP phosphodiesterase 7A (Homo sapiens), sequence (Q13946 whole entry): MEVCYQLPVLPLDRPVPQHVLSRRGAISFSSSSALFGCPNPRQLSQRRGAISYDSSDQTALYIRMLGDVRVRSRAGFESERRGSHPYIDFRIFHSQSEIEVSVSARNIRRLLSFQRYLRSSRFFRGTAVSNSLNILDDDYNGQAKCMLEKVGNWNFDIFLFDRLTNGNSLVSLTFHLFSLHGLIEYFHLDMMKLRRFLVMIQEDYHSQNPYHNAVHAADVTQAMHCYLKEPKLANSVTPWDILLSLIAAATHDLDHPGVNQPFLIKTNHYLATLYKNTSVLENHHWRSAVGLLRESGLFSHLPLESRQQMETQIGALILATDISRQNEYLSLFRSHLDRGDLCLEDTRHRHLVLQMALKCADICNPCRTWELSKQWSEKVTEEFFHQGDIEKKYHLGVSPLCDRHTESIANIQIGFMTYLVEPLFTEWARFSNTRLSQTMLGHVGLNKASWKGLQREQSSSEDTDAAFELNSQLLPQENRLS

[14] = Cmax in Swiss albino mouse at 10 mg/kg, po; format: ADME, organism-based; parameters: dose 10 mg/kg, route oral; settings: in vivo
Rattus norvegicus [15] = assay: Antipsychotic activity in Sprague-Dawley rat conditioned avoidance response model assessed as avoidance of shock at 2.5 mg/kg, po measured after 2 hrs relative to vehicle-treated control; format: functional
[16] = target: T1, cAMP and cAMP-inhibited cGMP 3',5'-cyclic phosphodiesterase 10A (Homo sapiens, UniProt Q9Y233); assay: Inhibition of human recombinant GST-tagged PDE10A using [3H]-cAMP as substrate after 30 mins by scintillation proximity assay
T1 sequence (Q9Y233 whole entry): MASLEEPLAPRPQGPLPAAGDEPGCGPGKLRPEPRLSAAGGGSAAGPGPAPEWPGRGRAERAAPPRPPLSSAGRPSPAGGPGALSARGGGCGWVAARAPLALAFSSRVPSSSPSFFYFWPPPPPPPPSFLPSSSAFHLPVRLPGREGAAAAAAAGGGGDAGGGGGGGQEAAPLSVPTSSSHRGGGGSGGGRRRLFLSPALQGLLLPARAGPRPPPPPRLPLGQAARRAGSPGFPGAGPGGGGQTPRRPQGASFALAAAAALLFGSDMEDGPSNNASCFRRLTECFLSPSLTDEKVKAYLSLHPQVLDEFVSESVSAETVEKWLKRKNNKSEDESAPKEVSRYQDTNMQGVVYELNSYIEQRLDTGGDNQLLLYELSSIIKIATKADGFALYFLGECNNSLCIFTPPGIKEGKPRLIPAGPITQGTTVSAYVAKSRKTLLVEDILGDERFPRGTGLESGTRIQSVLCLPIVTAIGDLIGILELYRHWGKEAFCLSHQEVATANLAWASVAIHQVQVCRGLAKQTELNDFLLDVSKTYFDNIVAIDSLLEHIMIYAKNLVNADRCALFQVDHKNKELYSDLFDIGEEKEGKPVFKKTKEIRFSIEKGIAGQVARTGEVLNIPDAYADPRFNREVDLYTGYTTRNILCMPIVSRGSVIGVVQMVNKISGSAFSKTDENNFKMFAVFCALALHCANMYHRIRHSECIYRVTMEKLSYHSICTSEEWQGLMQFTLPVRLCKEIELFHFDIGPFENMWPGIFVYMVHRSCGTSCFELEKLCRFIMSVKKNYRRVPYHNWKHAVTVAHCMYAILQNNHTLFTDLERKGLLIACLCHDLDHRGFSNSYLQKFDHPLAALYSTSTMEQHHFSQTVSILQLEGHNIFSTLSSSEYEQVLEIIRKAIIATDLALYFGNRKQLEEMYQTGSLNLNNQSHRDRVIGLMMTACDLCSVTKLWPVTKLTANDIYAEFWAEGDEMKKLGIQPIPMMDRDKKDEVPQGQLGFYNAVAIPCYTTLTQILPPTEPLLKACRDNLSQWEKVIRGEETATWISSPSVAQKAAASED

Rattus norvegicus [17] = assay: Antipsychotic activity in po dosed Sprague-Dawley rat psychosis model assessed as reversal of MK-801-induced locomotion administered 2 hrs prior to MK-801 challenge measured every 5 mins for 1 hr starting 15 mins post MK-801 injection relative to vehicle-treated control; format: functional
[18] = Half life in Sprague-Dawley rat at 10 mg/kg, po; format: ADME, organism-based; parameters: dose 10 mg/kg, route oral; settings: in vivo
[19] = target: High affinity 3',5'-cyclic-AMP phosphodiesterase 7A (Homo sapiens) (UniProt Q13946); assay: Inhibition of human recombinant PDE7A using [3H]-cAMP as substrate at 1 uM after 30 mins by two-step radiometric assay
Rattus norvegicus [20] = assay: Antipsychotic activity in Sprague-Dawley rat conditioned avoidance response model assessed as response failure at 10 mg/kg, po measured after 2 hrs relative to vehicle-treated control; format: functional, organism-based; parameters: dose 10 mg/kg
Rattus norvegicus [21] = assay: Antipsychotic activity in Sprague-Dawley rat psychosis model assessed as reversal of MK-801-induced ataxia at 10 mg/kg, po administered 2 hrs prior to MK-801 challenge measured every 5 mins for 1 hr starting 15 mins post MK-801 injection relative to vehicle-treated control; format: functional
[22] = Apparent permeability of the compound by PAMPA; format: physicochemical
Rattus norvegicus [23] = assay: Antipsychotic activity in Sprague-Dawley rat psychosis model assessed as reversal of MK-801-induced ataxia at 3 mg/kg, po administered 2 hrs prior to MK-801 challenge measured every 5 mins for 1 hr starting 15 mins post MK-801 injection relative to vehicle-treated control; format: functional
[24] = target: cGMP-dependent 3',5'-cyclic phosphodiesterase (Homo sapiens) (UniProt O00408); assay: Inhibition of human recombinant PDE2A using cAMP as substrate at 10 uM after 30 mins by HTRF method
[25] = Metabolic stability in cynomolgus monkey liver microsomes incubated for 10 mins prior to NADPH addition measured after 60 mins by LC/MS/MS analysis; format: ADME, Macaca fascicularis; settings: read-out: Stability
[26] = target: T1, cAMP and cAMP-inhibited cGMP 3',5'-cyclic phosphodiesterase 10A; assay: Inhibition of human recombinant GST-tagged PDE10A using [3H]-cAMP as substrate at 1 uM after 30 mins by scintillation proximity assay
Rattus norvegicus [27] = assay: Antipsychotic activity in Sprague-Dawley rat psychosis model assessed as reversal of MK-801-induced locomotion at 3 mg/kg, po administered 2 hrs prior to MK-801 challenge measured every 5 mins for 1 hr starting 15 mins post MK-801 injection relative to vehicle-treated control; format: functional
[28] = target: cGMP-inhibited 3',5'-cyclic phosphodiesterase 3A (Homo sapiens) (UniProt Q14432); assay: Inhibition of human recombinant PDE3A using cAMP as substrate at 10 uM after 30 mins by HTRF method
cGMP-inhibited 3',5'-cyclic phosphodiesterase 3A (Homo sapiens), sequence (Q14432 whole entry): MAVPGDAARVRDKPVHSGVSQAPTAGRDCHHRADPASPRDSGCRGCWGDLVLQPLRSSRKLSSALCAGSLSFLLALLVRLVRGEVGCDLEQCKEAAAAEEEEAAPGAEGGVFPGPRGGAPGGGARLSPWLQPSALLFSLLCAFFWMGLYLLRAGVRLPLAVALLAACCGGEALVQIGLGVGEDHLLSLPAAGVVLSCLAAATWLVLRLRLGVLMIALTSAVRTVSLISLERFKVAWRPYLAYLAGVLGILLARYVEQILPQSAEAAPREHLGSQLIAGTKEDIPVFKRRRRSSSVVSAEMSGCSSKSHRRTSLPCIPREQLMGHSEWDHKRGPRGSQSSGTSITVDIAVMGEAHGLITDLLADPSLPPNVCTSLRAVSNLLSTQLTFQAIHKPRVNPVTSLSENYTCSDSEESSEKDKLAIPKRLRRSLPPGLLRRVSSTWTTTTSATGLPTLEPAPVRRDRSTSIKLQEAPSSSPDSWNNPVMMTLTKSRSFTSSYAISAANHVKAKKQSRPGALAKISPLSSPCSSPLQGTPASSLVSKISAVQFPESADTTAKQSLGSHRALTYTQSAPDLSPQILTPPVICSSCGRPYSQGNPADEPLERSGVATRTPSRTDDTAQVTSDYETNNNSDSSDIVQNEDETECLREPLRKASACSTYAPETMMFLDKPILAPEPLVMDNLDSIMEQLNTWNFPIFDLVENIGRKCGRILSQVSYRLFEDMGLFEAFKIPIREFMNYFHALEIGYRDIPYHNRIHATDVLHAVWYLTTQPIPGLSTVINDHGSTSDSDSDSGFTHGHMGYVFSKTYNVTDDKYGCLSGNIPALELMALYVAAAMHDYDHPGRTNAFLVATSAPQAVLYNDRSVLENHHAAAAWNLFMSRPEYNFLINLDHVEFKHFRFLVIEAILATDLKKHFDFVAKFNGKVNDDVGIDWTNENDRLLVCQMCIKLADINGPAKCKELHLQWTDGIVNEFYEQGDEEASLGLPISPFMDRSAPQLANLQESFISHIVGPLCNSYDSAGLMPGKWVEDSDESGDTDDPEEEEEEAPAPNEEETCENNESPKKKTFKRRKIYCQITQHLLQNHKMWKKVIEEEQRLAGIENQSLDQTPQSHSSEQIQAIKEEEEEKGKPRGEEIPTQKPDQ

[29] = Metabolic stability in CD1 mouse liver microsomes incubated for 10 mins prior to NADPH addition measured after 60 mins by LC/MS/MS analysis; format: ADME; settings: read-out: Stability
[30] = Metabolic stability in Wistar rat liver microsomes incubated for 10 mins prior to NADPH addition measured after 60 mins by LC/MS/MS analysis; format: ADME; settings: read-out: Stability
Rattus norvegicus [31] = assay: Antipsychotic activity in Sprague-Dawley rat prepulse inhibition deficit model assessed as reversal of MK-801-induced effect at 1 mg/kg, po administered 110 mins prior to MK-801 challenge relative to vehicle-treated control; format: functional; parameters: scale not given: the % may be the effect or the level left
Rattus norvegicus [32] = assay: Antipsychotic activity in Sprague-Dawley rat conditioned avoidance response model assessed as escape at 10 mg/kg, po measured after 2 hrs relative to vehicle-treated control; format: functional, organism-based; parameters: dose 10 mg/kg
Rattus norvegicus [33] = assay: Antipsychotic activity in Sprague-Dawley rat psychosis model assessed as reversal of MK-801-induced locomotion at 10 mg/kg, po administered 2 hrs prior to MK-801 challenge measured every 5 mins for 1 hr starting 15 mins post MK-801 injection relative to vehicle-treated control; format: functional
Rattus norvegicus [34] = assay: Antipsychotic activity in Sprague-Dawley rat conditioned avoidance response model assessed as avoidance of shock at 1 mg/kg, po measured after 2 hrs relative to vehicle-treated control; format: functional
[35] = target: 3',5'-cyclic-AMP phosphodiesterase 4D (Homo sapiens) (UniProt Q08499); assay: Inhibition of human recombinant PDE4D using [3H]-cAMP as substrate at 1 uM after 30 mins by two-step radiometric assay

inhibition [1]: 21.6%
inhibition [3]: 11.2%
Tmax [5]: 2 h
AUC(0-t) [6]: 31600 ng·h/mL
Tmax [8]: 0.5 h
inhibition [11]: 3.3%
inhibition [13]: 44.5%
Cmax [14]: 5490 ng/mL
IC50 [16]: 6.3 nM
half-life [18]: 4.4 h
inhibition [19]: 2.5%
Papp [22]: 2.97 ×10⁻⁶ cm/s
inhibition [24]: 42.4%
remaining at 1 h [25]: 70.5%
inhibition [26]: 98%
inhibition [28]: 6.3%
remaining at 1 h [29]: 46.2%
remaining at 1 h [30]: 51%
inhibition [35]: 0%
Compound: Cn1cc(-c2ccc(Oc3nccnc3-c3ccncc3)cc2)c2ncccc21
Activity (Rattus norvegicus [2]): 64%
Activity (Rattus norvegicus [4]): 90%
Activity (Rattus norvegicus [7]): 88%
Activity (Rattus norvegicus [9]): Dose-dependent effect
ED50 (Rattus norvegicus [9]): 2.08 mg/kg
Activity (Rattus norvegicus [10]): 95%
Activity (Rattus norvegicus [12]): Dose-dependent effect
ED50 (Rattus norvegicus [12]): 1.47 mg/kg
Activity (Rattus norvegicus [15]): 64%
ED50 (Rattus norvegicus [17]): 1.63 mg/kg
Activity (Rattus norvegicus [20]): Active
Activity (Rattus norvegicus [21]): 86%
Activity (Rattus norvegicus [23]): 59%
Activity (Rattus norvegicus [27]): 74%
Activity (Rattus norvegicus [31]): 43%
Activity (Rattus norvegicus [32]): Active
Activity (Rattus norvegicus [33]): 90%
Activity (Rattus norvegicus [34]): 17%
